Laboratory results reported in patent publication US7799775B2, “Pyrimidine derivatives” (ASKA Pharmaceutical Co., Ltd., priority 2004, dated 2010).
Where a name gives a salt, the structure may show the parent alone.

Key:
human 5-HT1A receptor = biological target: T1, human 5-HT1A receptor (Homo sapiens, UniProt P08908); assay: Affinity measurement of the compounds to human 5-HT1A receptor (in vitro), [3H]8-OH-DPAT binding; conditions: test compound 100 nmols/L, [3H]8-OH-DPAT 0.25 nmols/L, CHO cell membrane expressing human 5-HT1A receptor; for inhibition at 0.1 µM: read-out: Percent Inhibition (%) on Each Receptor's Binding at 10^−7M, 5-HT1A
T1 construct: purchased Packard Bioscience; host or cells: CHO cells (membrane preparation)
T1 sequence (P08908 1-422): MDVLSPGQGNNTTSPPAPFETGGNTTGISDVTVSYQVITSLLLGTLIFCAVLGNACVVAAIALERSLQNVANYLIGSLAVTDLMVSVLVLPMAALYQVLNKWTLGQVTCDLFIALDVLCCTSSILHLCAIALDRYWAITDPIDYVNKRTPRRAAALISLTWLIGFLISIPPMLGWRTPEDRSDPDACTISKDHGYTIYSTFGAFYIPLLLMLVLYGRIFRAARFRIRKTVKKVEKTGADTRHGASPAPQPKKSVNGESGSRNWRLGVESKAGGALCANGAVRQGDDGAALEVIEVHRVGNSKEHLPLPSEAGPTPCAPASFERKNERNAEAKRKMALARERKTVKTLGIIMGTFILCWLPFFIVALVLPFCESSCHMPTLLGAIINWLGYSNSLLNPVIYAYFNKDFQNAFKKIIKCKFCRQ
Protocol: (1) Affinity Measurement of the Compounds to Human 5-HT1A Receptor (in Vitro)
CHO cell membrane sample in which human 5-HT1A receptor was expressed (purchased from Packard Bioscience) 0.25 mL (about 50 units) was added to 24.75 mL of incubation buffer solution A (an aqueous solution of a mixture of 50 mmols/L of Tris-hydrochloric acid, 10 mmols/L of magnesium sulfate, 0.5 mmols/L of EDTA and 0.1% ascorbic acid, whose pH was adjusted to 7.4 at 27° C. with 1N-aqueous sodium hydroxide solution), and labeled as membrane sample suspension A. Separately, each test compound was made into 270 μmols/L DMSO solution and diluted to a prescribed concentration with the incubation buffer solution A, to provide a compound solution.
A piece of polypropylene tube was charged with 20 μL of [^3H]8-OH-DPAT (8-hydroxy-2-(di-n-propylamino)tetralin; purchased from Daiichi Pure Chemicals Co., Ltd.) (The concentration of the [^3H]8-OH-DPAT had been advancedly adjusted to render its concentration in the reaction mixture to 0.25 nmols/L) and 20 μL of one of the compound solutions. Further 500 μL of the membrane sample suspension A was added into the tube, followed by 60 minutes' incubation at 27° C. The reaction was terminated by rapid filtration of the reaction mixture through GF/C filter which had been advancedly immersed in a solution formed by adding to the incubation buffer solution A polyethyleneimine to a concentration of 0.3%, using Brandel cell harvester. Then the filter was washed with about 5 mL of 50 mmols/L of Tris-hydrochloric acid which had been cooled to 4° C. The filter was once again washed after similar operation.
(§1) Residual radioactivity on the filter was measured with liquid scintillation counter (Aloka Co., LSC-5100). Percent inhibition (%) of each test compound to binding of [^3H]8-OH-DPAT to 5-HT1A receptor at a concentration of 0.25 nmols/L, i.e., affinity of each test compound to 5-HT1A receptor, can be calculated according to the following expression. The ratio of non-specific binding was calculated by measuring the radioactivity in case of using 8-OH-DPAT at a concentration of 10 μmols/L, with which value the measured value of each test compound was compensated.
(§2) Affinity of each test compound to 5-HT1A receptor and 5-HT3 receptor at a concentration of 100 nmols/L were as shown in the following Tables A-1 and A-2. BRL-43694 and tropisetron (ICS 205-930), which were used in measuring affinity of those compounds to 5-HT3 receptor, have the following structures: […]

human 5-HT3 receptor = biological target: T2, human 5-HT3 receptor (Homo sapiens, UniProt P46098); assay: Measurement of affinity to human 5-HT3 receptor (in vitro), [3H]BRL-43694 binding; conditions: test compound 100 nmols/L, [3H]BRL-43694 0.5 nmols/L, HEK-293 cell membrane expressing human 5-HT3 receptor; for inhibition at 0.1 µM: read-out: Percent Inhibition (%) on Each Receptor's Binding at 10^−7M, 5-HT3
T2 construct: purchased BIOLINKS K.K; host or cells: HEK-293 cells (membrane preparation)
T2 sequence (P46098 24-478): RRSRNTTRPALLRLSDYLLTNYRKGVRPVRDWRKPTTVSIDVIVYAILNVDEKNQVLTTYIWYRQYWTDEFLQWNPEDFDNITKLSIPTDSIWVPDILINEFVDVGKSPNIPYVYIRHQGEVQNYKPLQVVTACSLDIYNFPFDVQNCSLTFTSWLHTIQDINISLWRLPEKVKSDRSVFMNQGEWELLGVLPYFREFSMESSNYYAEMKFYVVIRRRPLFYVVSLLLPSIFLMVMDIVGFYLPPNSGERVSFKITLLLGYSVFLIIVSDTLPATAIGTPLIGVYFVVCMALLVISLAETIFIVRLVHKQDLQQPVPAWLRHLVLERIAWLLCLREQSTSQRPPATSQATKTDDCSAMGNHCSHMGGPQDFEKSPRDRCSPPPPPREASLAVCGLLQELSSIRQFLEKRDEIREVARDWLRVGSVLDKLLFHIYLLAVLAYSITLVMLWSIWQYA
Protocol: (2) Measurement of Affinity of Each Test Compound to Human 5-HT3 Receptor (in Vitro):
HEK-293 cell membrane sample in which human 5-HT3 receptor was expressed (purchased from BIOLINKS K.K.) 0.05 mL (about 50 microassay) was added to 24.95 mL of incubation buffer solution B (an aqueous solution of a mixture of 50 mmols/L of Tris-hydrochloric acid, 5 mmols/L of magnesium chloride and 1 mmol/L of EDTA, whose pH was adjusted to 7.5 at 25° C. with 1N-aqueous sodium hydroxide solution) and homogenized, to provide a membrane sample suspension B. Separately, each test compound was made into 270 μmols/L of DMSO solution and diluted to a prescribed concentration with the incubation buffer solution B to provide a compound solution.
A piece of polypropylene tube was charged with 20 μL of [^3H]BRL-43694 (purchased from Daiichi Pure Chemicals Co., Ltd.) (The concentration of [^3H]BRL-43694 had been advancedly adjusted to render its concentration in the reaction mixture to 0.5 nmols/L.) and 20 μL of one of the compound solutions. Further 500 μL of the membrane sample suspension B was added into the tube, followed by 60 minutes' incubation at 25° C. The reaction was terminated by rapid filtration of the reaction mixture through GF/B filter which had been advancedly immersed in a solution formed by adding to the incubation buffer solution B polyethyleneimine to a concentration of 0.5%, using Brandel cell harvester. Then the filter was washed with about 5 mL of 50 mmols/L of Tris-hydrochloric acid which had been cooled to 4° C. The filter was once again washed after similar operation.
as §1, with “(ALOKA CO., LTD.” for “(Aloka Co.,”, “[^3H]BRL-43694” for “[^3H]8-OH-DPAT”, “5-HT3” for “5-HT1A”, “0.5” for “0.25”, “tropisetron: (ICS 205-930)” for “8-OH-DPAT”
as §2

Work on `Cn1c(NCCCN2CCN(c3ccc4ccccc4n3)CC2)nc2c(c1=O)CCCC2` [Example 7-29, 3-methyl-2-[3-(4-quinolin-2-ylpiperazin-1-yl)propylamino]-5,6,7,8-tetrahydro-3H-quinazolin-4-one] yielded an inhibition at 0.1 µM (human 5-HT1A receptor) of 80.8% and an inhibition at 0.1 µM (human 5-HT3 receptor) of 93.6%.

`NN1Oc2c(sc3c2CCNC3)N=C1SCCCN1CCN(c2ccc3ccccc3n2)CC1` [Example 1-59, 3-amino-2-[3-(4-quinolin-2-ylpiperazin-1-yl)propylthio]-3,4,5,6,7,8-hexahydro-4-oxa-9-thia-1,3,7-triaza-9H-fluorene trihydrochloride] showed an inhibition at 0.1 µM (human 5-HT1A receptor) of 100% and an inhibition at 0.1 µM (human 5-HT3 receptor) of 50%.

Work on `CC(C)n1c(CCCCN2CCN(c3ccc4ccccc4n3)CC2)nc2ccccc2c1=O` [Example 7-15, 3-isopropyl-2-[4-(4-quinolin-2-ylpiperazin-1-yl)butyl]-3H-quinazolin-4-one] yielded an inhibition at 0.1 µM (human 5-HT1A receptor) of 62.1% and an inhibition at 0.1 µM (human 5-HT3 receptor) of 35%.

With `O=c1c2ccccc2nc(CCCCN2CCN(c3ccc4ccccc4n3)CC2)n1Cc1ccccc1` [Example 7-16, 3-benzyl-2-[4-(4-quinolin-2-ylpiperazin-1-yl)butyl]-3H-quinazolin-4-one] the inhibition at 0.1 µM (human 5-HT1A receptor) was 72.2% and the inhibition at 0.1 µM (human 5-HT3 receptor) was 66.8%.

In the case of `Nn1c(CCCCN2CCN(c3ccc4ccccc4n3)CC2)nc2c(c1=O)CC(O)CC2` (stereo not drawn) [Example 4-70, 3-amino-6-hydroxy-2-[4-(4-quinolin-2-ylpiperazin-1-yl)butyl]-5,6,7,8-tetrahydro-3H-quinazolin-4-one], the inhibition at 0.1 µM (human 5-HT1A receptor) was 96.1% and the inhibition at 0.1 µM (human 5-HT3 receptor) was 92.5%.

`CCn1c(CCCCN2CCN(c3nc4ccccc4s3)CC2)nc2c(c1=O)CCCC2` [Example 7-10, 2-[4-(4-benzothiazol-2-ylpiperazin-1-yl)butyl]-3-ethyl-5,6,7,8-tetrahydro-3H-quinazolin-4-one] was tested, and the inhibition at 0.1 µM (human 5-HT1A receptor) was 16.1% and the inhibition at 0.1 µM (human 5-HT3 receptor) was 7.1%.

In the case of `O[C@@H]1C[C@H]2CN(c3nccc4ccsc34)CCN2C1` [Production Example 112, 7-((7R,8aS)-7-hydroxyoctahydropyrrolo[1,2-a]pyrazin-2-yl)thieno-[2,3-c]pyridine], the inhibition at 0.1 µM (human 5-HT1A receptor) was 53.9% and the inhibition at 0.1 µM (human 5-HT3 receptor) was 98.8%.

For `COc1cc(N2CCN(CCCCc3nc4ccccc4c(=O)n3N)CC2)nc2ccccc12` [Example 4-22, 3-amino-2-[4-(4-methoxyquinolin-2-yl)piperazin-1-yl]butyl-3H-quinazolin-4-one], the “Percent Inhibition (%) on Each Receptor's Binding at 10^−7M, 5-HT1A” value (human 5-HT1A receptor) was 58.2% and the “Percent Inhibition (%) on Each Receptor's Binding at 10^−7M, 5-HT3” value (human 5-HT3 receptor) was 93.9%.

Compound `CN1CCN(c2nc(Cl)cc3ccccc23)CC1` [Production Example 16, 3-chloro-1-(4-methylpiperazin-1-yl)isoquinoline dihydrochloride] has an inhibition at 0.1 µM (human 5-HT1A receptor) of 61.1% and an inhibition at 0.1 µM (human 5-HT3 receptor) of 99.2%.

Compound `CCn1c(CCCCN2CCN(c3ccc4ccccc4n3)CC2)nc2c(c1=O)CC(C)CC2` (stereo not drawn) [Example 7-13, 3-ethyl-6-methyl-2-[4-(4-quinolin-2-ylpiperazin-1-yl)butyl]-5,6,7,8-tetrahydro-3H-quinazolin-4-one] has an inhibition at 0.1 µM (human 5-HT1A receptor) of 90.2% and an inhibition at 0.1 µM (human 5-HT3 receptor) of 93.6%.

Compound `O=c1[nH]c(SCCCN2CCN(c3ccc4ccccc4n3)CC2)nc2ccsc12` [Example 2-12, 2-[3-(4-quinolin-2-ylpiperazin-1-yl)propylthio]-3H-thieno[3,2-d]-pyrimidin-4-one] has an inhibition at 0.1 µM (human 5-HT1A receptor) of 41.9% and an inhibition at 0.1 µM (human 5-HT3 receptor) of 34.6%.

For `Cc1sc2nc(SCCCN3CCN(c4nc5ccccc5n5cccc45)CC3)n(N)c(=O)c2c1C` [Example 1-5, 3-amino-5,6-dimethyl-2-[3-(4-pyrrolo[1,2-a]quinoxalin-4-ylpiperazin-1-yl)propylthio]-3H-thieno[2,3-d]pyrimidin-4-one], the inhibition at 0.1 µM (human 5-HT1A receptor) was 85% and the inhibition at 0.1 µM (human 5-HT3 receptor) was 82.6%.

`COc1ccc2ccnc(N3CCN4CCC[C@@H]4C3)c2c1` [Production Example 77, 1-((8aR)-octahydropyrrolo[1,2-a]pyrazin-2-yl)-7-methoxyisoquinoline] gave an inhibition at 0.1 µM (human 5-HT1A receptor) of 98.9% and an inhibition at 0.1 µM (human 5-HT3 receptor) of 97.9%.

For `CN1CCN(c2nccc3sc(Br)cc23)CC1` [Production Example 10, 2-bromo-4-(methylpiperazin-1-yl)thieno[3,2-c]pyridine], the inhibition at 0.1 µM (human 5-HT1A receptor) was 98.5% and the inhibition at 0.1 µM (human 5-HT3 receptor) was 73.8%.

Work on `CC(CCCc1nc2c(c(=O)n1C)CCCC2)N1CCN(c2ccc3ccccc3n2)CC1` (stereo not drawn) [Example 7-14, 3-methyl-2-[4-(4-quinolin-2-ylpiperazin-1-yl)pentyl]-5,6,7,8-tetrahydro-3H-quinazolin-4-one] yielded an inhibition at 0.1 µM (human 5-HT1A receptor) of 77.8% and an inhibition at 0.1 µM (human 5-HT3 receptor) of 16.7%.

Work on `c1cc2ccoc2c(N2CCNCC2)n1` [Production Example 1, 7-piperazin-1-ylfuro[2,3-c]pyridine] yielded an inhibition at 0.1 µM (human 5-HT1A receptor) of 86.7% and an inhibition at 0.1 µM (human 5-HT3 receptor) of 80.8%.

With `Fc1ccc2ccnc(N3CCNCC3)c2c1` [Production Example 63, 7-fluoro-1-piperazin-1-ylisoquinoline] the inhibition at 0.1 µM (human 5-HT1A receptor) was 80.4% and the inhibition at 0.1 µM (human 5-HT3 receptor) was 96.8%.

For `CCn1c(CCCCN2CCN(c3ccc4ccccc4n3)CC2)nc2ccccc2c1=O` [Example 7-21, 3-2-[4-(4-quinolin-2-ylpiperazin-1-yl)butyl]-3H-quinazolin-4-one], the inhibition at 0.1 µM (human 5-HT1A receptor) was 97.4% and the inhibition at 0.1 µM (human 5-HT3 receptor) was 95%.
